The species named for one assay is Homo sapiens. Kind of assay: Selectivity ratio of IC50 for human recombinant MAO-B to IC50 for human recombinant MAO-A.
The target in assay [1] is T1, Amine oxidase [flavin-containing] A (Homo sapiens, UniProt P21397).
T1 sequence (P21397 whole entry): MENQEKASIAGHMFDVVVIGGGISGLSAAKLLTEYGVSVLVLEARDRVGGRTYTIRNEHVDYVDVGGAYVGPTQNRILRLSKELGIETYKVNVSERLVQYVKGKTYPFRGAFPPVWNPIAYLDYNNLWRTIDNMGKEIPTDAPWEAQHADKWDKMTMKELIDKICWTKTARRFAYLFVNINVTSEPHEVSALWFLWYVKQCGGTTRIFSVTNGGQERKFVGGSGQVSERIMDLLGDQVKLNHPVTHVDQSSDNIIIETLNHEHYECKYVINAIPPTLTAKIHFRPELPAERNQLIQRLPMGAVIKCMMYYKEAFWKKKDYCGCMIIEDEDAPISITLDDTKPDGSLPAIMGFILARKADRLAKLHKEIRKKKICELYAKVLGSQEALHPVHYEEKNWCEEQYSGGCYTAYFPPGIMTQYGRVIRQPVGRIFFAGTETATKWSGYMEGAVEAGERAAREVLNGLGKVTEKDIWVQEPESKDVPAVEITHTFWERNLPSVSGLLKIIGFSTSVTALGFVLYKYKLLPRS
Kind of assay: Inhibition of human recombinant MAO-A using kynuramine as substrate preincubated with compound for 15 mins measured after 20 mins by fluorometric analysis.

In assay [2] the target is T2, Amine oxidase [flavin-containing] B (Homo sapiens, UniProt P27338).
T2 sequence (P27338 whole entry): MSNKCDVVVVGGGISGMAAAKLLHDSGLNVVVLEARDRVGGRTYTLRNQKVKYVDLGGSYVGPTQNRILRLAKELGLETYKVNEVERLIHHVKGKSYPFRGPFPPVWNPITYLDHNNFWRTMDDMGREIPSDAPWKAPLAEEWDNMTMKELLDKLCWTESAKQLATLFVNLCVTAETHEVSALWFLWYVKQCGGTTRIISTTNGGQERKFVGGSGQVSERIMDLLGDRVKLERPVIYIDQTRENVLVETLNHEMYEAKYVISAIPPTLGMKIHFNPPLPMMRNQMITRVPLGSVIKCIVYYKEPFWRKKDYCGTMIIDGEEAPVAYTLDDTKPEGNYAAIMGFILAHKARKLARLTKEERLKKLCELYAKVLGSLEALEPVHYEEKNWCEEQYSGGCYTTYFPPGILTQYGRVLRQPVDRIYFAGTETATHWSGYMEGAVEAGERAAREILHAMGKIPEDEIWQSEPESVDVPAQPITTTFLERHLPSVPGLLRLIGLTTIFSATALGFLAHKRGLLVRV
Kind of assay: Inhibition of human recombinant MAO-B using kynuramine as substrate preincubated with compound for 15 mins measured after 20 mins by fluorometric analysis.

In general, IC50 refers to the concentration needed to halve the response being measured. `C/N=C1\N(C)C(=O)/C(=C\c2c[nH]c3cc(Br)ccc23)N1C`: the Ratio IC50 in the assay listed under Homo sapiens is 11.2. Moreover, the figures for the IC50 in assay [1] and in assay [2] were 18 nM and 207 nM, respectively.
On the same counts, the results for `C/N=C1\NC(=O)/C(=C/c2c[nH]c3cccc(Br)c23)N1` are 3.9, 1800 nM and 7030 nM.

(Values after ChEMBL document CHEMBL2057107, “Synthesis and evaluation of aplysinopsin analogs as inhibitors of human monoamine oxidase A and B” (Bioorg Med Chem Lett, 2012).)
